Assay results from patent US7265152B2 (ViroPharma Incorporated, priority 2002, dated 2007).
Read-outs that look alike come from different tables or passages of the source.

Legend:
[1] = test system: HCV replicon (BB7 sequence) in Huh-7-Clone A cells; experiment: HCV replicon assay: ELISA of NS5A protein in replicon-containing cells (Inhibition of Viral RNA Replication); assay type: cell-based; conditions: read-out: Replicon
Outline: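 Huh-7-Clone A cells carrying subgenomic BB7 HCV replicon (G418-selectable) incubated 72 h with compound. NS5A protein quantified by cell ELISA: glutaraldehyde fixation, anti-NS5A monoclonal plus HRP secondary, TMB read at OD 650 nm. EC50 derived from 8-point serial dilution dose curve.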

HCV NS5B = target: T1, HCV NS5B (Hepatitis C virus genotype 1b, UniProt Q9WMX2); experiment: Inhibition of viral RNA-dependent RNA polymerase (RdRp), in vitro biochemical assay; set-up: species or system HCV genotype 1b virus (BB7); conditions: read-out: HCV pol-BB7 IC50
T1 construct: fusion protein, of which the carboxyl terminal 21 amino acids were removed to enhance its solubility; His tag (GSHHHHHH); made in house; host or cells: E. coli
Outline: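 Purified recombinant NS5B from a genotype 1b consensus (BB7), His-tagged, E. coli-expressed, with the C-terminal 21 residues deleted. Inhibition of RdRp activity in vitro was measured, and IC50 is the concentration giving 50% inhibition.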

[2] = Hepatitis C virus, Huh-7-Clone A, NS5A ELISA, 72-hour incubation, ranges of EC50
[3] = purified His-tagged NS5B (BB7), carboxyl terminal 21 amino acids removed
[4] = Hepatitis C virus, HCV replicon assay, ranges of EC50
[5] = HCV NS5B RdRp, BB7, class symbols A-D
[6] = Hepatitis C virus, HCV replicon, range of EC50
[7] = HCV NS5B RdRp, BB7, reported as range class
[8] = Hepatitis C virus, HCV replicon assay, ranges of 50% effective concentration (EC50)
[9] = HCV NS5B polymerase, BB7 (genotype 1b), values given as range classes A-D
[10] = Hepatitis C virus, ranges of EC50 in HCV replicon assay
[11] = HCV NS5B RdRp, BB7, activity class

In the case of `CNC(=O)c1c(-c2ccc(F)cc2)oc2cc(-c3cc(CO)on3)c(OC(C)C)cc12` [Example 37, 2-(4-Fluoro-phenyl)-6-(5-hydroxymethyl-isoxazol-3-yl)-5-isopropoxy-benzofuran-3-carboxylic acid methylamide], the EC50 [1, 2] is reported as < 1000 nM and the IC50 (HCV NS5B; [3]) is reported as ≤ 500 nM.

`CNC(=O)c1c(-c2ccc(F)cc2)oc2cc(Br)c(OC)cc12` [Example 13, 6-Bromo-2-(4-fluoro-phenyl)-5-methoxy-benzofuran-3-carboxylic acid methylamide] was tested, and the EC50 [1, 2] was < 1000 nM and the IC50 (HCV NS5B; [3]) was ≤ 500 nM.

For `CNC(=O)c1c(-c2ccc(F)cc2)oc2ccc(OCc3cccc(C(=O)O)c3)cc12` [Example 260, 3-[2-(4-Fluoro-phenyl)-3-methylcarbamoyl-benzofuran-5-yloxymethyl]-benzoic acid], the EC50 [1, 4] was > 30000 nM and the IC50 (HCV NS5B; [5]) was ≤ 500 nM.

`CNC(=O)c1c(-c2ccc(F)cc2)oc2cc(N3CC[S+]([O-])CC3)c(OC(C)C)cc12` [Example 188, 2-(4-Fluoro-phenyl)-5-isopropoxy-6-(1-oxo-thiomorpholin-4-yl)-benzofuran-3-carboxylic acid methylamide] was tested, and the EC50 [1, 6] was < 10000 nM and the IC50 (HCV NS5B; [7]) was 5000 to 30000 nM.

With `CNC(=O)c1c(-c2ccc(F)cc2)oc2cc(N3CCOCC3)c(OCc3c(C)noc3C)cc12` [Example 217, 5-(3,5-Dimethyl-isoxazol-4-ylmethoxy)-2-(4-fluoro-phenyl)-6-morpholin-4-yl-benzofuran-3-carboxylic acid methylamide] the EC50 [1, 6] was < 10000 nM and the IC50 (HCV NS5B; [7]) was 500 to 5000 nM.

In the case of `CNC(=O)c1c(-c2ccc(F)cc2)oc2cc(C(C)(C)N)c(OC)cc12` [Example 384, 6-(1-Amino-1-methyl-ethyl)-2-(4-fluoro-phenyl)-5-methoxy-benzofuran-3-carboxylic acid methylamide], the EC50 [1, 8] is reported as < 30000 nM and the IC50 (HCV NS5B; [9]) is reported as 500 to 5000 nM.

`CNC(=O)c1c(-c2ccc(N3CCOCC3)cc2)oc2ccc(OC)cc12` [Example 93, 5-Methoxy-2-(4-morpholin-4-yl-phenyl)-benzofuran-3-carboxylic acid methylamide] was tested, and the EC50 [1, 10] was > 30000 nM and the IC50 (HCV NS5B; HCV NS5B RdRp, BB7 genotype 1b) was 500 to 5000 nM.

With `CNC(=O)c1c(-c2ccc(F)cc2)oc2cc(CN(C)S(C)(=O)=O)c(OC(C)C)cc12` [Example 249, 2-(4-Fluoro-phenyl)-5-isopropoxy-6-[(methanesulfonyl-methyl-amino)-methyl]-benzofuran-3-carboxylic acid methylamide] the EC50 [1, 6] was < 10000 nM and the IC50 (HCV NS5B; [7]) was ≤ 500 nM.

For `CNC(=O)c1c(-c2ccc(F)cc2)oc2cc(C(C)(C)O)c(OC(C)C)cc12` [Example 202, 2-(4-Fluoro-phenyl)-6-(1-hydroxy-1-methyl-ethyl)-5-isopropoxy-benzofuran-3-carboxylic acid methylamide], the EC50 [1, 6] was < 1000 nM and the IC50 (HCV NS5B; [7]) was ≤ 500 nM.

For `CNC(=O)c1c(-c2ccc(F)cc2)oc2cc(-c3ccc(F)nc3)c(OC(C)C)cc12` [Example 161, 2-(4-Fluoro-phenyl)-6-(6-fluoro-pyridin-3-yl)-5-isopropoxy-benzofuran-3-carboxylic acid methylamide], the EC50 [1, 10] was < 10000 nM and the IC50 (HCV NS5B; HCV NS5B RdRp, BB7 genotype 1b) was ≤ 500 nM.

With `CNC(=O)c1c(-c2ccc(F)cc2)oc2cc(NCCN3CCOCC3)c(OC(C)C)cc12` [Example 100, 2-(4-Fluoro-phenyl)-5-isopropoxy-6-(2-morpholin-4-yl-ethylamino)-benzofuran-3-carboxylic acid methylamide] the EC50 [1, 10] was < 30000 nM and the IC50 (HCV NS5B; HCV NS5B RdRp, BB7 genotype 1b) was 500 to 5000 nM.

With `CNC(=O)c1c(-c2ccc(F)cc2)oc2cc(-c3c(C)noc3C)c(OC)cc12` [Example 28, 6-(3,5-Dimethyl-isoxazol-4-yl)-2-(4-fluoro-phenyl)-5-methoxy-benzofuran-3-carboxylic acid methylamide] the EC50 [1, 2] was < 1000 nM and the IC50 (HCV NS5B; [3]) was ≤ 500 nM.

In the case of `CNC(=O)c1c(-c2ccc(F)cc2)oc2ccc(OCc3cccc(C(=O)OC)c3)cc12` [Example 258, 3-[2-(4-Fluoro-phenyl)-3-methylcarbamoyl-benzofuran-5-yloxymethyl]-benzoic acid methyl ester], the EC50 [1, 4] is reported as > 30000 nM and the IC50 (HCV NS5B; [5]) is reported as ≤ 500 nM.

With `CNC(=O)c1c(-c2ccc(F)cc2)oc2cc(N(CCOC)S(C)(=O)=O)c(OC)cc12` [Example 240, 2-(4-Fluoro-phenyl)-6-[methanesulfonyl-(2-methoxy-ethyl)-amino]-5-methoxy-benzofuran-3-carboxylic acid methylamide] the EC50 [1, 6] was < 1000 nM and the IC50 (HCV NS5B; [7]) was ≤ 500 nM.

In the case of `CNC(=O)c1c(-c2ccc(F)cc2)oc2cc(N(CC3(CO)CC3)S(C)(=O)=O)c(OCC3(CO)CC3)cc12` [Example 422, 2-(4-Fluoro-phenyl)-5-(1-hydroxymethyl-cyclopropylmethoxy)-6-[(1-hydroxymethyl-cyclopropylmethyl)-methanesulfonyl-amino]-benzofuran-3-carboxylic acid methylamide], the EC50 [1, 8] is reported as < 10000 nM and the IC50 (HCV NS5B; [9]) is reported as 500 to 5000 nM.

With `CNC(=O)c1c(-c2ccc(F)cc2)oc2cc(-c3cccc(S(C)(=O)=O)c3)c(OC(C)C)cc12` [Example 178, 2-(4-Fluoro-phenyl)-5-isopropoxy-6-(3-methanesulfonyl-phenyl)-benzofuran-3-carboxylic acid methylamide] the EC50 [1, 6] was < 10000 nM and the IC50 (HCV NS5B; [7]) was ≤ 500 nM.

`CNC(=O)c1c(-c2ccc(F)cc2)oc2cc(N3CCOCC3)c(OCC(C)(C)O)cc12` [Example 250, 2-(4-Fluoro-phenyl)-5-(2-hydroxy-2-methyl-propoxy)-6-morpholin-4-ylbenzofuran-3-carboxylic acid methylamide] was tested, and the EC50 [1, 4] was < 10000 nM and the IC50 (HCV NS5B; [5]) was 500 to 5000 nM.

`CNC(=O)c1c(-c2ccc(F)cc2)oc2cc(NS(C)(=O)=O)c(F)cc12` [Example 332, 5-Fluoro-2-(4-fluoro-phenyl)-6-methanesulfonylamino-benzofuran-3-carboxylic acid methylamide] was tested, and the EC50 [1, 4] was < 10000 nM and the IC50 (HCV NS5B; [11]) was 500 to 5000 nM.

For `CNC(=O)c1c(-c2ccc(F)cc2)oc2cc(-c3c(C)noc3C)c(OCc3nccs3)cc12` [Example 410, 6-(3,5-Dimethyl-isoxazol-4-yl)-2-(4-fluoro-phenyl)-5-(thiazol-2-ylmethoxy)-benzofuran-3-carboxylic acid methylamide], the EC50 [1, 8] was < 1000 nM and the IC50 (HCV NS5B; [9]) was ≤ 500 nM.

`CCOc1cc2c(C(=O)NC)c(-c3ccc(F)cc3)oc2cc1N(C)S(C)(=O)=O` [Example 38, 5-Ethoxy-2-(4-fluoro-phenyl)-6-(methanesulfonyl-methyl-amino)-benzofuran-3-carboxylic acid methylamide] was tested, and the EC50 [1, 2] was < 1000 nM and the IC50 (HCV NS5B; [3]) was ≤ 500 nM.

With `CNC(=O)c1c(-c2ccc(F)cc2)oc2cc(C(=O)CO)c(OC)cc12` [Example 436, 2-(4-Fluoro-phenyl)-6-(2-hydroxy-acetyl)-5-methoxy-benzofuran-3-carboxylic acid methylamide] the EC50 [1, 8] was < 10000 nM and the IC50 (HCV NS5B; [9]) was ≤ 500 nM.

With `CNC(=O)c1c(-c2ccc(F)cc2)oc2cc(N(C3CCCC3)S(C)(=O)=O)c(OC(C)C)cc12` [Example 163, 6-(Cyclopentyl-methanesulfonyl-amino)-2-(4-fluoro-phenyl)-5-isopropoxy-benzofuran-3-carboxylic acid methylamide] the EC50 [1, 10] was < 1000 nM and the IC50 (HCV NS5B; HCV NS5B RdRp, BB7 genotype 1b) was ≤ 500 nM.

For “2-(4-Bromo-phenyl)-5-isopropoxy-benzofuran-3-carboxylic acid methylamide [Example 104]”, the EC50 ([1]; ranges of EC50 in HCV replicon assay) was < 10000 nM and the IC50 (HCV NS5B; HCV NS5B RdRp, BB7 genotype 1b) was ≤ 500 nM.

`CNC(=O)c1c(-c2ccc(F)cc2)oc2cc(C3CCN(C(C)=O)C3)c(OC)cc12` (centres unmarked) [Example 345, 6-(1-Acetyl-pyrrolidin-3-yl)-2-(4-fluoro-phenyl)-5-methoxy-benzofuran-3-carboxylic acid methylamide] was tested, and the EC50 [1, 4] was < 10000 nM and the IC50 (HCV NS5B; [11]) was ≤ 500 nM.

`CCc1cc2c(C(=O)NC)c(-c3ccc(F)cc3)oc2cc1N(CCF)S(C)(=O)=O` [Example 337, 5-Ethyl-6-[(2-fluoro-ethyl)-methanesulfonyl-amino]-2-(4-fluoro-phenyl)-benzofuran-3-carboxylic acid methylamide] was tested, and the EC50 [1, 4] was < 1000 nM and the IC50 (HCV NS5B; [11]) was ≤ 500 nM.

`CNC(=O)c1c(-c2ccc(F)cc2)oc2cc(N3CCOCC3)c(OCc3ccc(C(=O)OC)cc3)cc12` [Example 262, 4-[2-(4-Fluoro-phenyl)-3-methylcarbamoyl-6-morpholin-4-yl-benzofuran-5-yloxymethyl]-benzoic acid methyl ester] was tested, and the EC50 [1, 4] was < 10000 nM and the IC50 (HCV NS5B; [5]) was ≤ 500 nM.

For `CNC(=O)c1c(-c2ccc(F)cc2)oc2cc(S(=O)(=O)N3CCOCC3)c(OC(C)C)cc12` [Example 142, 2-(4-Fluoro-phenyl)-5-isopropoxy-6-(morpholine-4-sulfonyl)-benzofuran-3-carboxylic acid methylamide], the EC50 [1, 10] was < 10000 nM and the IC50 (HCV NS5B; HCV NS5B RdRp, BB7 genotype 1b) was ≤ 500 nM.

For `CNC(=O)c1c(-c2ccc(F)cc2)oc2cc(NCC3CCCO3)c(OC(C)C)cc12` (centres unmarked) [Example 123, 2-(4-Fluoro-phenyl)-5-isopropoxy-6-[(tetrahydro-furan-2-ylmethyl)-amino]-benzofuran-3-carboxylic acid methylamide], the EC50 [1, 10] was < 10000 nM and the IC50 (HCV NS5B; HCV NS5B RdRp, BB7 genotype 1b) was ≤ 500 nM.
